Results from ChEMBL document CHEMBL1201862, “PubChem BioAssay data set” (2004).
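Five concentrations, 48 hours, 96-well plates. At the GI50, growth is halved.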 Active and inactive are the calls of the source. Rule as the data show it: active = GI50 up to about 1.1 µM and inactive = higher.

How the values were obtained:
Test in all cases: growth of human tumour cells (NCI), 48 h
HCC 2998 = test system: HCC 2998
HOP-92 = test system: HOP-92
SNB-78 = test system: SNB-78
786-0 = test system: 786-0
UACC-62 = test system: UACC-62
SF-539 = test system: SF-539
KM-20L2 = test system: KM-20L2
TK-10 = test system: TK-10
OVCAR-5 = test system: OVCAR-5
HL-60 = test system: HL-60
Malme-3M = test system: Malme-3M
SK-OV-3 = test system: SK-OV-3
OVCAR-3 = test system: OVCAR-3
LXFL 529 = test system: LXFL 529
SK-MEL-28 = test system: SK-MEL-28
K562 = test system: K562
DMS-114 = test system: DMS-114
SF-268 = test system: SF-268
SR = test system: SR
OVCAR-4 = test system: OVCAR-4
RXF 393 = test system: RXF 393
SF-295 = test system: SF-295
NCI-H23 = test system: NCI-H23
HCT-116 = test system: HCT-116
A498 = test system: A498
MOLT-4 = test system: MOLT-4
HCT-15 = test system: HCT-15
A549 = test system: A549
CAKI-1 = test system: CAKI-1
SNB-19 = test system: SNB-19
EKVX = test system: EKVX
NCI-H522 = test system: NCI-H522
M14 = test system: M14
COLO 205 = test system: COLO 205
HT-29 = test system: HT-29
DLD-1 = test system: DLD-1
DMS-273 = test system: DMS-273
RPMI-8226 = test system: RPMI-8226
IGROV-1 = test system: IGROV-1
NCI-H460 = test system: NCI-H460
M19-MEL = test system: M19-MEL
HOP-62 = test system: HOP-62
UACC-257 = test system: UACC-257
NCI-H226 = test system: NCI-H226
UO-31 = test system: UO-31
XF498 = test system: XF498
SW-620 = test system: SW-620
SN12C = test system: SN12C
SK-MEL-5 = test system: SK-MEL-5
U-251 = test system: U-251
KM12 = test system: KM12
LOX IMVI = test system: LOX IMVI
OVCAR-8 = test system: OVCAR-8
SNB-75 = test system: SNB-75
ACHN = test system: ACHN
HOP-18 = test system: HOP-18
CCRF-CEM = test system: CCRF-CEM
SK-MEL-2 = test system: SK-MEL-2

O=C(CSSCC(=O)Nc1ccc(Br)cc1)Nc1ccc(Br)cc1
GI50 (HCC 2998): 22.1 µM (inactive)
GI50 (HOP-92): 19 µM (inactive)
GI50 (SNB-78): 15.1 µM (inactive)
GI50 (786-0): 17.6 µM (inactive)
GI50 (UACC-62): 15.9 µM (inactive)
GI50 (SF-539): 17.6 µM (inactive)
GI50 (KM-20L2): 15.1 µM (inactive)
GI50 (TK-10): 16.7 µM (inactive)
GI50 (OVCAR-5): 18.2 µM (inactive)
GI50 (HL-60): 16.9 µM (inactive)
GI50 (Malme-3M): 21.8 µM (inactive)
GI50 (SK-OV-3): 25.4 µM (inactive)
GI50 (OVCAR-3): 18.1 µM (inactive)
GI50 (LXFL 529): 16 µM (inactive)
GI50 (SK-MEL-28): 18.5 µM (inactive)
GI50 (K562): 21.2 µM (inactive)
GI50 (DMS-114): 14 µM (inactive)
GI50 (SF-268): 13.7 µM (inactive)
GI50 (SR): 10.3 µM (inactive)
GI50 (OVCAR-4): 20 µM (inactive)
GI50 (RXF 393): 18.7 µM (inactive)
GI50 (SF-295): 14.7 µM (inactive)
GI50 (NCI-H23): 19.3 µM (inactive)
GI50 (HCT-116): 14.4 µM (inactive)
GI50 (A498): 19.6 µM (inactive)
GI50 (MOLT-4): 14.1 µM (inactive)
GI50 (HCT-15): 19.6 µM
GI50 (A549): 16.8 µM (inactive)
GI50 (CAKI-1): 24.2 µM (inactive)
GI50 (SNB-19): 15.3 µM (inactive)
GI50 (EKVX): 26.5 µM (inactive)
GI50 (NCI-H522): 12.2 µM (inactive)
GI50 (M14): 17.7 µM (inactive)
GI50 (COLO 205): 28.5 µM (inactive)
GI50 (HT-29): 20.9 µM (inactive)
GI50 (DLD-1): 18.1 µM (inactive)
GI50 (DMS-273): 16.5 µM (inactive)
GI50 (RPMI-8226): 21.6 µM (inactive)
GI50 (IGROV-1): 18.2 µM (inactive)
GI50 (NCI-H460): 16.9 µM (inactive)
GI50 (M19-MEL): 18.5 µM (inactive)
GI50 (HOP-62): 12.4 µM (inactive)
GI50 (UACC-257): 20.7 µM (inactive)
GI50 (NCI-H226): 16.9 µM (inactive)
GI50 (UO-31): 17.7 µM (inactive)
GI50 (XF498): 20.1 µM (inactive)
GI50 (SW-620): 15.2 µM (inactive)
GI50 (SN12C): 16.3 µM (inactive)
GI50 (SK-MEL-5): 24 µM (inactive)
GI50 (U-251): 14.4 µM (inactive)
GI50 (KM12): 19.1 µM (inactive)
GI50 (LOX IMVI): 10.8 µM (inactive)
GI50 (OVCAR-8): 17.3 µM (inactive)
GI50 (SNB-75): 20.7 µM (inactive)
GI50 (ACHN): 15.8 µM (inactive)

CN(C)CC1CCCC/C1=N/OC(=O)c1ccc(Cl)cc1 (stereo not given)
GI50 (HCC 2998): > 100 µM (inactive)
GI50 (HOP-92): > 100 µM (inactive)
GI50 (SNB-78): > 100 µM (inactive)
GI50 (786-0): > 100 µM (inactive)
GI50 (UACC-62): > 100 µM (inactive)
GI50 (SF-539): > 100 µM (inactive)
GI50 (KM-20L2): > 100 µM (inactive)
GI50 (TK-10): > 100 µM (inactive)
GI50 (OVCAR-5): > 100 µM (inactive)
GI50 (HL-60): > 100 µM (inactive)
GI50 (Malme-3M): > 100 µM (inactive)
GI50 (SK-OV-3): > 100 µM (inactive)
GI50 (OVCAR-3): > 100 µM (inactive)
GI50 (LXFL 529): > 100 µM (inactive)
GI50 (SK-MEL-28): > 100 µM (inactive)
GI50 (K562): > 100 µM (inactive)
GI50 (SF-268): > 100 µM (inactive)
GI50 (SR): > 100 µM (inactive)
GI50 (OVCAR-4): > 100 µM (inactive)
GI50 (RXF 393): > 100 µM (inactive)
GI50 (SF-295): > 100 µM (inactive)
GI50 (NCI-H23): > 100 µM (inactive)
GI50 (HCT-116): > 100 µM (inactive)
GI50 (A498): > 100 µM (inactive)
GI50 (HOP-18): > 100 µM (inactive)
GI50 (MOLT-4): > 100 µM (inactive)
GI50 (HCT-15): > 100 µM
GI50 (A549): > 100 µM (inactive)
GI50 (CCRF-CEM): > 100 µM (inactive)
GI50 (CAKI-1): > 100 µM (inactive)
GI50 (EKVX): > 100 µM (inactive)
GI50 (NCI-H522): > 100 µM (inactive)
GI50 (M14): > 100 µM (inactive)
GI50 (COLO 205): > 100 µM (inactive)
GI50 (HT-29): > 100 µM (inactive)
GI50 (DLD-1): > 100 µM (inactive)
GI50 (DMS-273): > 100 µM (inactive)
GI50 (RPMI-8226): > 100 µM (inactive)
GI50 (IGROV-1): > 100 µM (inactive)
GI50 (NCI-H460): > 100 µM (inactive)
GI50 (M19-MEL): > 100 µM (inactive)
GI50 (HOP-62): > 100 µM (inactive)
GI50 (UACC-257): > 100 µM (inactive)
GI50 (NCI-H226): > 100 µM (inactive)
GI50 (UO-31): > 100 µM (inactive)
GI50 (SK-MEL-2): > 100 µM (inactive)
GI50 (XF498): > 100 µM (inactive)
GI50 (SW-620): > 100 µM (inactive)
GI50 (SN12C): > 100 µM (inactive)
GI50 (U-251): > 100 µM (inactive)
GI50 (KM12): > 100 µM (inactive)
GI50 (LOX IMVI): > 100 µM (inactive)
GI50 (OVCAR-8): > 100 µM (inactive)
GI50 (SNB-75): > 100 µM (inactive)
GI50 (ACHN): > 100 µM (inactive)
